pEC50: −log10 of the molar value. Several values for one entry are separate records, joined by “and”; a condition that tells them apart may be missing. Identical values can stand only once.
Each compound was assayed against human mGluR5A (Homo sapiens, UniProt P41594) (assay: mGluR5 FLIPR Assay). Conditions: positive modulator activity; HEK293 (ZF) cells with human mGluR5A and rat GLAST; Ca++ response to ~EC10 glutamate.
Type: cell-based
Description: HEK293 (ZF) cells stably transfected with human mGluR5A (pIRES neo) and the rat glutamate-aspartate transporter (GLAST; pIRES puro) are grown in a monolayer culture at 37° C. in 5% CO2 and fed with Minimum Essential Medium (MEM) supplemented with 10% dialysed fetal bovine serum. 24 hours prior to assay, cells are enzymatically dissociated from the culture flask (Trypsin, 0.25%), spun down (1000 rpm, 3 min), resuspended, and plated on Greiner black clear bottomed PDL-coated 384-well plates at a density of 30 thousand cells/well. […] Plates are incubated in dye at 37° C. in 5% CO2 for 60 minutes prior to delivery of test compounds in assay buffer. Test compounds are incubated with cells in the presence of dye for 10 minutes prior to being read on the FLIPR platform (Molecular Devices). A Ca^++ signal is induced in the assay plates via the delivery of an ˜EC10 concentration of the endogenous agonist 1-glutamate; images are acquired at 1 Hz for 100 seconds post-delivery of agonist stimulus. Positive modulator activity (i.e. the ability of test compounds to increase the Ca^++ response to a sub-maximal concentration of agonist) is normalized to a saturating concentration of a known mGluR5 PAM run in each assay plate. An EC50 concentration of test compounds is derived from 4-parameter logistic curve fits of transformed fluoresence data via proprietary software suite.

Sequence of human mGluR5A (P41594 21-1180 isoform P41594-2): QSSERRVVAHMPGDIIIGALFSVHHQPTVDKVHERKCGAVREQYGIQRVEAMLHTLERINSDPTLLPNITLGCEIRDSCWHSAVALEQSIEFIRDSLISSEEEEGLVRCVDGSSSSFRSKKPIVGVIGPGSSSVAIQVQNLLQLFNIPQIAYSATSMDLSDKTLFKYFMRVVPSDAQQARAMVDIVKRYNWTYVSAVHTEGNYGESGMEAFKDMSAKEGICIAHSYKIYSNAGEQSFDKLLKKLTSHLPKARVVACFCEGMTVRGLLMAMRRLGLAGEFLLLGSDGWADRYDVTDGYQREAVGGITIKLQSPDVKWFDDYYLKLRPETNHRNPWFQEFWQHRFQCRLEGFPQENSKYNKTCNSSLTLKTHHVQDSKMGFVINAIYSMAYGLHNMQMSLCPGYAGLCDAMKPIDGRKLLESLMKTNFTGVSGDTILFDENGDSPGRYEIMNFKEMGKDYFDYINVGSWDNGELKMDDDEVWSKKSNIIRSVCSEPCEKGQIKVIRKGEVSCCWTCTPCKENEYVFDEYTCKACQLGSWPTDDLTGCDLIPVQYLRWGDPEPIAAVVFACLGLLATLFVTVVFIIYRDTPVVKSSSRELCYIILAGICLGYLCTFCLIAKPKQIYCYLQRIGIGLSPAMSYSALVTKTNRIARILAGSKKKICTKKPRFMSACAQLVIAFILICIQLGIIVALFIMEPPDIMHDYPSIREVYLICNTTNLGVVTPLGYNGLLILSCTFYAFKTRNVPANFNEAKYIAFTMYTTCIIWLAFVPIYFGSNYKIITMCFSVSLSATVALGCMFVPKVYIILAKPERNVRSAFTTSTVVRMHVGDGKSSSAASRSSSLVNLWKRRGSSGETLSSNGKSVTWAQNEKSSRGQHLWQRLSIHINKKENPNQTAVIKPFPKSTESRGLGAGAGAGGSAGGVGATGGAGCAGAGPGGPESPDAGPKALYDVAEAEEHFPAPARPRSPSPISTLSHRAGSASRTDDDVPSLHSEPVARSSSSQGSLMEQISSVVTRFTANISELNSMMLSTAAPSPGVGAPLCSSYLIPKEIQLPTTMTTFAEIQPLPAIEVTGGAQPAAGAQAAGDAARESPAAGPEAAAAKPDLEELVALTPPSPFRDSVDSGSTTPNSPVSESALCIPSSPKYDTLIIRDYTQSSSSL

| pEC50 | SMILES |
| --- | --- |
| < 6.00 | O=C1N[C@@H](c2cncc(C#Cc3cccnc3)c2)[C@H](c2ccc(F)cc2)O1 (single isomer, unassigned) [Example 42] |
| > 7.00 | O=C1N[C@H](c2cncc(C#Cc3cccnc3)c2)[C@@H](c2ccc(F)cc2)O1 (single isomer, unassigned) [Example 43] |
| < 6.00 | O=C1N[C@@H](c2cncc(C#Cc3cncc(F)c3)c2)[C@H](c2ccc(F)cc2)O1 (single isomer, unassigned) [Example 44] |
| > 7.00 and 8.42 | O=C1N[C@H](c2cncc(C#Cc3cncc(F)c3)c2)[C@@H](c2ccc(F)cc2)O1 (single isomer, unassigned) [Example 45] |
| > 7.00 | O=C1N[C@H](c2cccc(C#Cc3ccccc3)c2)[C@@H](c2ccccc2)O1 (single isomer, unassigned) [Example 95] |
| 6.00 to 7.00 | O=C1N[C@@H](c2cccc(C#Cc3ccccc3)c2)[C@H](c2ccccc2)O1 (single isomer, unassigned) [Example 96] |
| < 6.00 | Cc1ccc([C@@H]2OC(=O)N[C@H]2c2cccc(C#Cc3ccccc3)c2)cc1C (single isomer, unassigned) [Example 102] |
| > 7.00 | O=C1N[C@H](c2cccc(C#Cc3ccccc3)c2)C(c2cccs2)O1 (single isomer, unassigned) [Example 104] |
| < 4.52 | O=C1N[C@@H](c2cccc(C#Cc3ccccc3)c2)[C@H](c2cccs2)O1 (single isomer, unassigned) [Example 105] |
| > 7.00 | O=C1N[C@H](c2cccc(C#Cc3ccccc3)c2)[C@@H](c2ccc(F)cc2)O1 (single isomer, unassigned) [Example 114] |
| > 7.00 and 8.07 | O=C1N[C@H](c2cccc(C#Cc3ccccc3)n2)[C@@H](c2ccc(F)cc2)O1 (single isomer, unassigned) [Example 135] |
| < 6.00 | O=C1N[C@@H](c2cccc(C#Cc3ccccc3)n2)[C@H](c2ccc(F)cc2)O1 (single isomer, unassigned) [Example 136] |
| 6.00 to 7.00 | C[C@@]1(c2cncc(C#Cc3ccccc3)c2)NC(=O)O[C@H]1c1ccccc1 (single isomer, unassigned) [Example 137] |
| > 7.00 and 9.37 | C[C@]1(c2cncc(C#Cc3ccccc3)c2)NC(=O)O[C@@H]1c1ccccc1 (single isomer, unassigned) [Example 138] |
| > 7.00 and 8.33 | O=C1N[C@H](c2cc(C#Cc3ccccc3)ccn2)[C@@H](c2ccc(F)cc2)O1 (single isomer, unassigned) [Example 297] |
| 6.00 to 7.00 and 6.63 | O=C1N[C@@H](c2cc(C#Cc3ccccc3)ccn2)[C@H](c2ccc(F)cc2)O1 (single isomer, unassigned) [Example 298] |
| < 6.00 | O=C1N[C@H](c2nc(C#Cc3ccccc3)ccc2F)[C@@H](c2ccccc2)O1 (single isomer, unassigned) [Example 305] |
| < 5.52 | O=C1N[C@@H](c2nc(C#Cc3ccccc3)ccc2F)[C@H](c2ccccc2)O1 (single isomer, unassigned) [Example 306] |
| < 6.00 | O=C1N[C@H](c2cccc(C#Cc3ccccc3)n2)[C@@H](c2ccccc2F)O1 (single isomer, unassigned) [Example 307] |
| < 6.00 | O=C1N[C@@H](c2cccc(C#Cc3ccccc3)n2)[C@H](c2ccccc2F)O1 (single isomer, unassigned) [Example 308] |
| > 7.00 | O=C1N[C@H](c2cccc(C#Cc3ccccc3)n2)[C@@H](c2ccc(F)cc2F)O1 (single isomer, unassigned) [Example 309] |
| < 6.00 | O=C1N[C@@H](c2cccc(C#Cc3ccccc3)n2)[C@H](c2ccc(F)cc2F)O1 (single isomer, unassigned) [Example 310] |
| > 7.00 | O=C1N[C@H](c2cccc(C#Cc3cccc(F)c3)n2)[C@@H](c2ccc(F)cc2F)O1 (single isomer, unassigned) [Example 311] |
| < 5.52 | O=C1N[C@@H](c2cccc(C#Cc3cccc(F)c3)n2)[C@H](c2ccc(F)cc2F)O1 (single isomer, unassigned) [Example 312] |
